Source: patent publication US11021457B2, “Class of isoindolone-imide ring-1,3-dione-2-ene compounds, composition and use thereof” (WIGEN BIOMEDICINE TECHNOLOGY (SHANGHAI) CO., LTD., priority 2017, dated 2021)
Like-named read-outs stand apart in the source and are kept apart here.

Tests used:
[1] = system: A549; test: Inhibition of tumor cell proliferation, CellTiter-Glo, A549; type: cell-based; conditions: compound concentration 50 μM, 72 hours
Procedure, shortened: (§1)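 Cells seeded at 2000-10000 cells/well in complete medium at 37° C., 5% CO2; suspension lines dosed immediately, adherent lines after attachment. Viability by CellTiter-Glo luminescence at 72 h; survival % from blank-corrected RLU vs control. Scored at 50 μM: + (60-<90%), ++ (>30-60%), +++ (≤30%).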

[2] = system: RPMI-8226; test: Inhibition of tumor cell proliferation, CellTiter-Glo, RPMI-8226; type: cell-based; conditions: compound concentration 50 μM, 72 hours
Procedure, shortened: as §1

[3] = system: SU-DHL6; test: Inhibition of tumor cell proliferation, CellTiter-Glo, SU-DHL6; type: cell-based; conditions: compound concentration 50 μM, 72 hours
Procedure, shortened: as §1

[4] = system: K562; test: Inhibition of tumor cell proliferation, CellTiter-Glo, K562; type: cell-based; conditions: compound concentration 50 μM, 72 hours
Procedure, shortened: as §1

[5] = system: MDA-MB-453; test: Inhibition of tumor cell proliferation, CellTiter-Glo, MDA-MB-453; type: cell-based; conditions: compound concentration 50 μM, 72 hours
Procedure, shortened: as §1

[6] = molecular target: LC3B (Homo sapiens (Human), UniProt Q9GZQ8); test: Fluorescence polarization experiment targeting LC3B (GST-LC3B with FITC-labeled peptide)
[7] = system: BxPC-3; test: Inhibition of tumor cell proliferation, CellTiter-Glo, BxPC-3; type: cell-based; conditions: compound concentration 50 μM, 72 hours
Procedure, shortened: as §1

[8] = GST-LC3B 180 nM, FITC-labeled peptide 18 nM, 25° C.

Row | IC50 [6] [µM] | Structure (SMILES) | Inhibitory activity against proliferation (cell survival rate) A549 [1] | Inhibitory activity against proliferation (cell survival rate) RPMI-8226 [2] | Inhibitory activity against proliferation (cell survival rate) SU-DHL6 [3] | Inhibitory activity against proliferation (cell survival rate) K562 [4] | Inhibitory activity against proliferation (cell survival rate) MDA-MB-453 [5] | IC50 [6, 8] [µM] | Inhibitory activity against proliferation (cell survival rate) BxPC-3 [7] | cell survival rate (% of control) at 50 µM ([1]; Homo sapiens, A549, read-out: Inhibitory activity against proliferation (cell survival rate) A549) [%] | cell survival rate (% of control) at 50 µM ([2]; Homo sapiens, RPMI-8226, read-out: Inhibitory activity against proliferation (cell survival rate) RPMI-8226) [%] | cell survival rate (% of control) at 50 µM ([3]; Homo sapiens, SU-DHL-6, read-out: Inhibitory activity against proliferation (cell survival rate) SU-DHL6) [%] | cell survival rate (%) at 50 µM ([4]; Homo sapiens, K562, read-out: Inhibitory activity against proliferation (cell survival rate) K562) [%] | cell survival rate (%) at 50 µM ([5]; Homo sapiens, MDA-MB-453, read-out: Inhibitory activity against proliferation (cell survival rate) MDA-MB-453) [%] | cell survival rate (%) at 50 µM ([7]; Homo sapiens, BXPC-3, read-out: Inhibitory activity against proliferation (cell survival rate) BxPC-3) [%]
1 | – | O=C1CCC(N2Cc3c(NC=C4C(=O)CC(c5cc6[nH]ccc6cc5Br)CC4=O)cccc3C2=O)C(=O)N1 (stereo not shown) [Compound 149] | + (60≤survival rate (%)<90) | +++ (survival rate (%)≤30) | +++ (survival rate (%)≤30) | +++ (survival rate (%)≤30) | +++ (survival rate (%)≤30) | < 3 | + (60≤survival rate (%)<90) | – | – | – | – | – | –
2 | – | O=C1CCC(N2Cc3c(NC=C4C(=O)CC(c5cc(O)ccc5Br)CC4=O)cccc3C2=O)C(=O)N1 (stereo not shown) [Compound 148] | +++ (survival rate (%)≤30) | ++ (30<survival rate (%)≤60) | +++ (survival rate (%)≤30) | ++ (30<survival rate (%)≤60) | +++ (survival rate (%)≤30) | < 3 | + (60≤survival rate (%)<90) | – | – | – | – | – | –
3 | – | O=C1CCC(N2Cc3c(NC=C4C(=O)CC(c5ccccc5N5CCOCC5)CC4=O)cccc3C2=O)C(=O)N1 (stereo not shown) [Compound 155] | +++ (survival rate (%)≤30) | ++ (30<survival rate (%)≤60) | +++ (survival rate (%)≤30) | ++ (30<survival rate (%)≤60) | +++ (survival rate (%)≤30) | < 3 | + (60≤survival rate (%)<90) | – | – | – | – | – | –
4 | – | CC(=O)Nc1ccccc1C1CC(=O)C(=CNc2cccc3c2CN(C2CCC(=O)NC2=O)C3=O)C(=O)C1 (stereo not shown) [Compound 156] | + (60≤survival rate (%)<90) | +++ (survival rate (%)≤30) | +++ (survival rate (%)≤30) | +++ (survival rate (%)≤30) | +++ (survival rate (%)≤30) | < 3 | + (60≤survival rate (%)<90) | – | – | – | – | – | –
5 | – | O=C1CCC(N2Cc3c(NC=C4C(=O)CC(c5ccccc5Br)CC4=O)cccc3C2=O)C(=O)N1 (stereo not shown) [Compound 18] | + (60≤survival rate (%)<90) | + (60≤survival rate (%)<90) | ++ (30<survival rate (%)≤60) | ++ (30<survival rate (%)≤60) | + (60≤survival rate (%)<90) | < 3 | + (60≤survival rate (%)<90) | – | – | – | – | – | –
6 | – | O=C1CCC(N2Cc3c(NC=C4C(=O)CC(c5c(C(F)(F)F)ccc(Cl)c5F)CC4=O)cccc3C2=O)C(=O)N1 (stereo not shown) [Compound 142] | + (60≤survival rate (%)<90) | +++ (survival rate (%)≤30) | +++ (survival rate (%)≤30) | +++ (survival rate (%)≤30) | +++ (survival rate (%)≤30) | < 3 | + (60≤survival rate (%)<90) | – | – | – | – | – | –
7 | – | CCC(=O)/C(=C/Nc1cccc2c1CN(C1CCC(=O)NC1=O)C2=O)C(=O)CCc1ccccc1 (stereo not shown) [Compound 128] | +++ (survival rate (%)≤30) | +++ (survival rate (%)≤30) | +++ (survival rate (%)≤30) | +++ (survival rate (%)≤30) | +++ (survival rate (%)≤30) | 100 to 1000 | + (60≤survival rate (%)<90) | – | – | – | – | – | –
8 | – | O=C1CCC(N2Cc3c(NC=C4C(=O)CC(c5cccc6[nH]ncc56)CC4=O)cccc3C2=O)C(=O)N1 (stereo not shown) [Compound 39] | + (60≤survival rate (%)<90) | + (60≤survival rate (%)<90) | ++ (30<survival rate (%)≤60) | +++ (survival rate (%)≤30) | +++ (survival rate (%)≤30) | < 3 | ++ (30<survival rate (%)≤60) | – | – | – | – | – | –
9 | – | O=C1CCC(N2C(=O)c3cccc(NC=C4C(=O)CC(c5cccc(Cl)c5Cl)CC4=O)c3C2=O)C(=O)N1 (stereo not shown) [Compound 6] | + (60≤survival rate (%)<90) | + (60≤survival rate (%)<90) | + (60≤survival rate (%)<90) | + (60≤survival rate (%)<90) | + (60≤survival rate (%)<90) | < 3 | + (60≤survival rate (%)<90) | – | – | – | – | – | –
10 | 100 to 1000 | O=C1CCC(N2Cc3c(NC=C4C(=O)CCCC4=O)cccc3C2=O)C(=O)N1 (stereo not shown) [Compound 132] | – | – | – | – | – | – | – | 60 to 90 | ≤ 30 | ≤ 30 | 30 to 60 | 60 to 90 | 30 to 60
11 | – | O=C1CCC(N2Cc3c(NC(=O)COCCNC=C4C(=O)CC(c5ccccc5)CC4=O)cccc3C2=O)C(=O)N1 (stereo not shown) [Compound 48] | +++ (survival rate (%)≤30) | +++ (survival rate (%)≤30) | +++ (survival rate (%)≤30) | +++ (survival rate (%)≤30) | +++ (survival rate (%)≤30) | 100 to 1000 | + (60≤survival rate (%)<90) | – | – | – | – | – | –
12 | – | O=C1CCC(N2Cc3c(NC=C4C(=O)CC(c5ccc(C(F)(F)F)cc5)CC4=O)cccc3C2=O)C(=O)N1 (stereo not shown) [Compound 21] | ++ (30<survival rate (%)≤60) | + (60≤survival rate (%)<90) | + (60≤survival rate (%)<90) | ++ (30<survival rate (%)≤60) | + (60≤survival rate (%)<90) | < 3 | + (60≤survival rate (%)<90) | – | – | – | – | – | –
13 | – | CC(C)[C@H](NC(=O)CCC(=O)OCCN1CCN(CCNC=C2C(=O)CC(c3ccccc3)CC2=O)CC1)C(=O)N[C@@H](CCCNC(N)=O)C(=O)Nc1ccc(COC(=O)Nc2cccc3c2CN(C2CCC(=O)NC2=O)C3=O)cc1 (stereo partly shown) [Compound 89] | ++ (30<survival rate (%)≤60) | ++ (30<survival rate (%)≤60) | ++ (30<survival rate (%)≤60) | ++ (30<survival rate (%)≤60) | +++ (survival rate (%)≤30) | 15 to 100 | + (60≤survival rate (%)<90) | – | – | – | – | – | –
